Activity calls are given as the source filed them. The calls are words filed in the database; no cut-off is given here.
B1: Tyrosinase (Agaricus bisporus), O42713 (protein)
chain: MSLIATVGPTGGVKNRLNIVDFVKNEKFFTLYVRSLELLQAKEQHDYSSFFQLAGIHGLPFTEWAKERPSMNLYKAGYCTHGQVLFPTWHRTYLSVLEQILQGAAIEVAKKFTSNQTDWVQAAQDLRQPYWDWGFELMPPDEVIKNEEVNITNYDGKKISVKNPILRYHFHPIDPSFKPYGDFATWRTTVRNPDRNRREDIPGLIKKMRLEEGQIREKTYNMLKFNDAWERFSNHGISDDQHANSLESVHDDIHVMVGYGKIEGHMDHPFFAAFDPIFWLHHTNVDRLLSLWKAINPDVWVTSGRNRDGTMGIAPNAQINSETPLEPFYQSGDKVWTSASLADTARLGYSYPDFDKLVGGTKELIRDAIDDLIDERYGSKPSSGARNTAFDLLADFKGITKEHKEDLKMYDWTIHVAFKKFELKESFSLLFYFASDGGDYDQENCFVGSINAFRGTAPETCANCQDNENLIQEGFIHLNHYLARDLESFEPQDVHKFLKEKGLSYKLYSRGDKPLTSLSVKIEGRPLHLPPGEHRPKYDHTQARVVFDDVAVHVIN

Experiments:
B16-F10 = assay: Antiproliferative activity against mouse B16F10 cells incubated for 72 hrs by MTT assay; assay type: functional, cell-based; conditions: B16-F10, 72 h
MCF7 [1] = assay: Antiproliferative activity against human MCF7 cells incubated for 72 hrs by SRB assay; assay type: functional, cell-based; conditions: MCF7, 72 h
A549 [2] = assay: Induction of apoptosis in human A549 cells assessed as fold increase in caspase 3/7 activation using Ac-DEVD-ACC as fluorogenic substrate at 5 ug/ml incubated for 72 hrs by fluorescence assay relative to control; assay type: functional
Tyrosinase = biological target: T1, Tyrosinase (Agaricus bisporus, UniProt O42713); assay: Inhibition of mushroom tyrosinase using L-dopa as substrate incubated for 30 mins by spectrophotometric method
T1 sequence (O42713 whole entry): B1 chain

[3] = Lipophilicity, chromatographic lipophilicity index of the compound in methanol by UPLC-MS/MS; assay type: physicochemical
BALB/3T3 = assay: Antiproliferative activity against mouse BALB/3T3 cells incubated for 72 hrs by SRB assay; assay type: cell-based; conditions: BALB/3T3, 72 h
MV4-11 = assay: Antiproliferative activity against human MV4-11 cells incubated for 72 hrs by MTT assay; assay type: functional, cell-based; conditions: MV4-11, 72 h
A549 [4] = assay: Antiproliferative activity against human A549 cells incubated for 72 hrs by SRB assay; assay type: functional, cell-based; conditions: A549, 72 h
HCT-116 = assay: Antiproliferative activity against human HCT116 cells by MTT assay; assay type: functional, cell-based
MCF7 [5] = assay: Antiproliferative activity against human MCF7 cells reduction in cell viability relative to control; assay type: functional
A549 [6] = assay: Potency index, ratio of chlorambucil to ratio of test compound for induction of apoptosis in human A549 cells; assay type: functional
[7] = biological target: T2, Tyrosinase (Agaricus bisporus) (UniProt O42713); assay: Ratio of IC50 for ascorbic acid to IC50 for test compound for inhibition of mushroom tyrosinase using L-dopa as substrate incubated for 30 mins by spectrophotometric method
T2 sequence (whole entry): B1 chain

[8] = biological target: T2, Tyrosinase (Agaricus bisporus); assay: Inhibition of mushroom tyrosinase assessed as reduction in peak intensity at 25 mM using L-dopa as substrate incubated for 30 mins by UV-vis spectra analysis
[9] = biological target: T2, Tyrosinase (Agaricus bisporus); assay: Ratio of IC50 for kojic acid to IC50 for test compound for inhibition of mushroom tyrosinase using L-dopa as substrate incubated for 30 mins by spectrophotometric method
MCF7 [10] = assay: Antiproliferative activity against human MCF7 cells reduction in cell viability; assay type: functional, cell-based
A549 [11] = assay: Potency index, ratio of camptothecin to ratio of test compound for induction of apoptosis in human A549 cells; assay type: functional
[12] = biological target: T2, Tyrosinase (Agaricus bisporus); assay: Inhibition of mushroom tyrosinase assessed as reduction in peak intensity at 15 mM using L-dopa as substrate incubated for 30 mins by UV-vis spectra analysis
HL-60 = assay: Antiproliferative activity against human HL60 cells incubated for 48 hrs by MTS assay; assay type: functional, cell-based; conditions: HL-60, 48 h
[13] = compound: CN1[C@@H]2CC[C@H]1C/C(=N/Nc1nc(-c3ccc(N=[N+]=[N-])cc3)cs1)C2; assay: (§1) Noncompetitive-inhibition of mushroom tyrosinase assessed as Vmax at 0.1 to 0.25 mM using 0.1 to 0.25 mM L-dopa as substrate incubated for 20 mins by Lineweaver-Burk double reciprocal plot analysis; conditions: Agaricus bisporus
[14] = compound: CN1[C@@H]2CC[C@H]1C/C(=N/Nc1nc(-c3ccc(C(F)(F)F)cc3)cs1)C2; assay: as §1; conditions: Agaricus bisporus
[15] = compound: CN1[C@@H]2CC[C@H]1C/C(=N/Nc1nc(-c3ccc(Cl)cc3Cl)cs1)C2; assay: as §1; conditions: Agaricus bisporus
[16] = compound: CN1[C@@H]2CC[C@H]1C/C(=N/Nc1nc(-c3ccc(F)cc3)cs1)C2; assay: as §1; conditions: Agaricus bisporus
[17] = compound: CN1[C@@H]2CC[C@H]1C/C(=N/Nc1nc(-c3ccc(Cl)c(Cl)c3)cs1)C2; assay: as §1; conditions: Agaricus bisporus
[18] = compound: CN1[C@@H]2CC[C@H]1C/C(=N/Nc1nc(-c3ccc(Cl)cc3)cs1)C2; assay: as §1; conditions: Agaricus bisporus
[19] = compound: Cc1ccc(-c2csc(N/N=C3\C[C@H]4CC[C@@H](C3)N4C)n2)cc1; assay: as §1; conditions: Agaricus bisporus
[20] = compound: CN1[C@@H]2CC[C@H]1C/C(=N/Nc1nc(-c3ccc(Br)cc3)cs1)C2; assay: as §1; conditions: Agaricus bisporus
[21] = compound: CN1[C@@H]2CC[C@H]1C/C(=N/Nc1nc(-c3ccc(N=[N+]=[N-])cc3)cs1)C2; assay: (§2) Noncompetitive-inhibition of mushroom tyrosinase assessed as Km at 0.1 to 0.25 mM using 0.1 to 0.25 mM L-dopa as substrate incubated for 20 mins by Lineweaver-Burk double reciprocal plot analysis; conditions: Agaricus bisporus
[22] = compound: CN1[C@@H]2CC[C@H]1C/C(=N/Nc1nc(-c3ccc(Cl)cc3Cl)cs1)C2; assay: as §2; conditions: Agaricus bisporus
[23] = compound: CN1[C@@H]2CC[C@H]1C/C(=N/Nc1nc(-c3ccc(Cl)c(Cl)c3)cs1)C2; assay: as §2; conditions: Agaricus bisporus
[24] = compound: CN1[C@@H]2CC[C@H]1C/C(=N/Nc1nc(-c3ccc(Cl)cc3)cs1)C2; assay: as §2; conditions: Agaricus bisporus
[25] = compound: CN1[C@@H]2CC[C@H]1C/C(=N/Nc1nc(-c3ccc(Br)cc3)cs1)C2; assay: as §2; conditions: Agaricus bisporus

Molecule	IC50 (B16-F10)	IC50 (MCF7 [1])	IC50 (Tyrosinase)	logKw [3]	IC50 (BALB/3T3)	IC50 (MV4-11)	IC50 (A549 [4])	other results
CN1[C@@H]2CC[C@H]1C/C(=N/Nc1nc(-c3ccc(F)cc3)cs1)C2	> 15.1 µM	19.2 µM	123 µM	-3.058	19.1 µM	13.7 µM	42.8 µM	Activity (A549 [2]): inactive
CCN1[C@@H]2CC[C@H]1/C(=C\c1ccc(OC)c(OC)c1)C(=O)/C2=C/c1ccc(OC)c(OC)c1								IC50 (HCT-116): 0.01 µM
CN1[C@@H]2CC[C@H]1CC(=O)C2								inhibition (INH) (MCF7 [5]): 26.98%
CN1[C@@H]2CC[C@H]1C/C(=N/Nc1nc(-c3ccc(C(F)(F)F)cc3)cs1)C2	5.86 µM	6.02 µM	33.7 µM	-3.25	8.41 µM	6.68 µM	7.54 µM	Ratio (A549 [6]): 3 - 5; fold change (FC) (A549 [2]): 3 - 5
O=C(O)CCCc1ccc(N(CCCl)CCCl)cc1 [CHLORAMBUCIL]	12.6 µM	69.3 µM			69.7 µM	8.55 µM	72.8 µM	
ClCCN(CCCl)c1ccc(/C=N/Nc2nc(-c3ccc(Br)cc3)cs2)cc1						1.27 µM		
CN1[C@@H]2CC[C@H]1C/C(=N/Nc1nc(-c3ccc(Cl)cc3Cl)cs1)C2	5.48 µM	7.05 µM	3.51 µM	-3.79	8.16 µM	6.82 µM	7.47 µM	Ratio (A549 [6]): 3 - 5; fold change (FC) (A549 [2]): 3 - 5; Ratio IC50 [7]: 120; inhibition [8]: Active; Ratio IC50 [9]: 22
CN1[C@@H]2CC[C@H]1C/C(=N/Nc1nc(-c3ccc(Cl)cc3)cs1)C2	> 14.4 µM	9.08 µM	133 µM	-2.844	9.2 µM	9.37 µM	9.48 µM	Activity (A549 [2]): inactive
Cc1ccc(-c2csc(N/N=C3\C[C@H]4CC[C@@H](C3)N4C)n2)cc1	10.6 µM	11.1 µM	101 µM	-2.654	10.2 µM	10.1 µM	17.3 µM	Activity (A549 [2]): inactive
CN1[C@@H]2CC[C@H]1C/C(=N/Nc1nc(-c3ccc(Br)cc3)cs1)C2	5.44 µM	7.67 µM	85 µM	-3.066	8.18 µM	8.36 µM	8.15 µM	Ratio (A549 [6]): 3 - 5; fold change (FC) (A549 [2]): 3 - 5
C/C(=N\Nc1nc(-c2ccc(Cl)c(Cl)c2)cs1)c1ccc(Nc2nc(N)nc(N)n2)cc1						3.56 µM		IC50 (MCF7 [10]): 7.59 µM
CN1[C@@H]2CC[C@H]1C/C(=N/Nc1nc(-c3ccc(Cl)c(Cl)c3)cs1)C2	5.43 µM	7.19 µM	3.22 µM	-4.024	8.58 µM	8.29 µM	7.89 µM	Ratio (A549 [6]): 18; Ratio (A549 [11]): 2; fold change (FC) (A549 [2]): 25; Ratio IC50 [7]: 120; Ratio IC50 [9]: 22; inhibition [12]: Active
CN1[C@@H]2CC[C@H]1C/C(=N/Nc1nc(-c3ccc(N=[N+]=[N-])cc3)cs1)C2	5.91 µM	8.94 µM	72.3 µM	-3.151	9.05 µM	9.87 µM	11 µM	Activity (A549 [2]): inactive
CN1[C@@H]2CC[C@H]1/C(=C\c1cccc(Br)c1)C(=O)/C2=C/c1cccc(Br)c1								IC50 (HL-60): 3.39 µM; IC50 (MCF7 [10]): 13.1 µM
B1								Vmax [13]: 5.05 abs/min; Vmax [14]: -12.8 abs/min; Vmax [15]: 0.0126 abs/min; Vmax [16]: -1.58 abs/min; Vmax [17]: 5.59 abs/min; Vmax [18]: 6.24 abs/min; Vmax [19]: -16.5 abs/min; Vmax [20]: 2.53 abs/min; Km [21]: 466 µM; Km [22]: 0.278 µM; Km [23]: 180 µM; Km [24]: 360 µM; Km [25]: 184 µM

From ChEMBL document CHEMBL4350971, “Discovery of tropinone-thiazole derivatives as potent caspase 3/7 activators, and noncompetitive tyrosinase inhibitors with high antiproliferative activity: Rational design, one-pot tricomponent synthesis, and lipophilicity determination” (Eur J Med Chem, 2019)
